Reference: patent publication US20140249135A1, “PIM KINASE INHIBITORS AND METHODS OF THEIR USE” (NOVARTIS AG, priority 2007, published 2014)
Read-outs that look alike come from different tables or passages of the source.

Key:
Assay type in all cases: biochemical
[1] = biological target: T1, human full length PKCE enzyme (Homo sapiens, UniProt Q02156); assay: In vitro PKCE assay; settings: 10 nM enzyme, 40 uM peptide substrate, 20 uM ATP, KinaseGlo Plus readout; read-out: PKCε IC50
T1 construct: human full length PKCE enzyme purchased from InVitrogen; purchased InVitrogen
T1 sequence (Q02156 1-737): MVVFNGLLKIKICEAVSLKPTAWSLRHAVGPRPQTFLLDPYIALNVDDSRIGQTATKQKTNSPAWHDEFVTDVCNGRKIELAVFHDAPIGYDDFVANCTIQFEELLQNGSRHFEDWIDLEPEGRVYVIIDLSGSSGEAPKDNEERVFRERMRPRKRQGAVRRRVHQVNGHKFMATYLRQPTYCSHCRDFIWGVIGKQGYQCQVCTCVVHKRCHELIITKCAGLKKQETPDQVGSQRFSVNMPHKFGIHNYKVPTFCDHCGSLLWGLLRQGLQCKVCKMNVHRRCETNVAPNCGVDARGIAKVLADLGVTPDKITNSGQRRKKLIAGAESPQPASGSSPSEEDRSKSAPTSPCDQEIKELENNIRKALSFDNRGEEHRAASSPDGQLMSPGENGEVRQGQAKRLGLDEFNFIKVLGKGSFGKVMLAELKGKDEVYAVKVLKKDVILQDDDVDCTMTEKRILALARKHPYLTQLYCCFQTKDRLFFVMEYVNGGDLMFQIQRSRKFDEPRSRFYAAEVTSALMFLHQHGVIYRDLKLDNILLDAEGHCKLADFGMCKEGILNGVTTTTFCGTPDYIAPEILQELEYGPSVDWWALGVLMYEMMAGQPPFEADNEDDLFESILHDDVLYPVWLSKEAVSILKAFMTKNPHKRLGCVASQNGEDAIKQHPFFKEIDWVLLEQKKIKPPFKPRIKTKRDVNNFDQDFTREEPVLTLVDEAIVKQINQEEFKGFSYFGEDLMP

[2] = biological target: Pim3 kinase (Homo sapiens, UniProt Q86V86); assay: Pim3 ATP depletion assay
[3] = biological target: Pim2 kinase (Homo sapiens, UniProt Q9P1W9); assay: Pim2 ATP depletion assay;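 further: Luciferase-based luminescent readout of ATP remaining after PIM2 phosphorylates a BAD peptide, final 5 nM enzyme, 4 µM ATP, 10 µM peptide, 2.5% DMSO, run to roughly half ATP consumption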
[4] = biological target: Pim1 kinase (Homo sapiens, UniProt P11309); assay: Pim1 ATP depletion assay;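 further: Luciferase-luciferin luminescence readout of residual ATP after PIM1 transfers phosphate to a peptide substrate, 40 µM ATP added, reaction run to roughly half ATP consumption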
[5] = Pim1 ATP depletion assay, read-out: IC50 (μM) PIM1
[6] = Pim1 ATP depletion assay, read-out: PIM1 IC50

Chain of Pim2 kinase (Q9P1W9 whole entry): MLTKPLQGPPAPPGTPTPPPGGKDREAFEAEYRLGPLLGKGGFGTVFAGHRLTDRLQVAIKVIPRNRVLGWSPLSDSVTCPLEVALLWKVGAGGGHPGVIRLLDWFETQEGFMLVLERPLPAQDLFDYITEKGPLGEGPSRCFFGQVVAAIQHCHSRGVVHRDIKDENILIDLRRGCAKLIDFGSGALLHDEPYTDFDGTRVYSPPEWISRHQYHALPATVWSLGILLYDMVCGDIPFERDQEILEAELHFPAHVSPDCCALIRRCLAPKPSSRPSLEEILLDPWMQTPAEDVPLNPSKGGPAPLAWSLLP
Chain of Pim1 kinase (P11309 whole entry): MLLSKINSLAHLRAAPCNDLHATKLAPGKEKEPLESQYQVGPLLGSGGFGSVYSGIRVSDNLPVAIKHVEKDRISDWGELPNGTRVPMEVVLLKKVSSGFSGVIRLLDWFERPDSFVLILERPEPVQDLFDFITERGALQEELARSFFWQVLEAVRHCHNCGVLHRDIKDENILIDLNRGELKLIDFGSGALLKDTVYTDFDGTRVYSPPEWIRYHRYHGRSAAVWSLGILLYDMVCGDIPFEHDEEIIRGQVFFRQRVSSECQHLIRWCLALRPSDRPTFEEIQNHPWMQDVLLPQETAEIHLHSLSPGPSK

| Compound | IC50 [1] | IC50 ([2]; read-out: IC50 (μM) PIM3) | IC50 ([3]; read-out: IC50 (μM) PIM2) | IC50 [4, 5] | IC50 ([2]; read-out: PIM3 IC50) | IC50 ([3]; read-out: PIM2 IC50) | IC50 [4, 6] | IC50 [4] |
| --- | --- | --- | --- | --- | --- | --- | --- | --- |
| Nc1nccnc1C(=O)Nc1cncnc1N1CCCCC1 [Example 128, 3-amino-N-(4-piperidin-1-yl-pyrimidin-5-yl)pyrazine-2-carboxamide] | > 25000 nM | 10 to 25 µM | > 25 µM | 1 to 10 µM | – | – | – | – |
| NC(=O)c1ccc(N2CCCCC2)c(NC(=O)c2nccnc2N)c1 [Example 129, 3-amino-N-(5-carbamoyl-2-piperidin-1-ylphenyl)pyrazine-2-carboxamide] | 1000 to 10000 nM | – | – | – | – | – | – | – |
| Nc1nccnc1C(=O)Nc1[nH]c(=O)ncc1-c1ccco1 [Example 136, 3-amino-N-[5-(2-furyl)-2-oxo-2,3-dihydropyrimidin-4-yl]-pyrazine-2-carboxamide] | 1000 to 10000 nM | < 1 µM | < 1 µM | < 1 µM | – | – | – | – |
| Nc1nccnc1C(=O)Nc1[nH]c(=O)ncc1-c1cccs1 [Example 137, 3-amino-N-[2-oxo-5-(2-thienyl)-2,3-dihydropyrimidin-4-yl]-pyrazine-2-carboxamide] | < 1000 nM | < 1 µM | < 1 µM | < 1 µM | – | – | – | – |
| Nc1nccnc1C(=O)Nc1[nH]c(=O)ncc1-c1nccs1 [Example 138, 3-amino-N-[2-oxo-5-(1,3-thiazol-2-yl)-2,3-dihydro-pyrimidin-4-yl]pyrazine-2-carboxamide] | > 25000 nM | < 1 µM | < 1 µM | < 1 µM | – | – | – | – |
| Cn1cccc1-c1cnc(=O)[nH]c1NC(=O)c1nccnc1N [Example 139, 3-amino-N-[5-(1-methyl-1H-pyrrol-2-yl)-2-oxo-2,3-dihydro-pyrimidin-4-yl]pyrazine-2-carboxamide] | < 1000 nM | < 1 µM | < 1 µM | < 1 µM | – | – | – | – |
| Nc1nccnc1C(=O)Nc1[nH]c(=O)ncc1-c1ccccn1 [Example 140, 3-amino-N-(2-oxo-5-pyridin-2-yl-2,3-dihydropyrimidin-4-yl)-pyrazine-2-carboxamide] | 1000 to 10000 nM | < 1 µM | < 1 µM | < 1 µM | – | – | – | – |
| Nc1ncc(Br)nc1C(=O)Nc1[nH]c(=O)ncc1-c1ccco1 [Example 141, 3-amino-6-bromo-N-[5-(2-furyl)-2-oxo-2,3-dihydro-pyrimidin-4-yl]pyrazine-2-carboxamide] | 1000 to 10000 nM | < 1 µM | < 1 µM | < 1 µM | – | – | – | – |
| Cn1cccc1-c1cnc(=O)[nH]c1NC(=O)c1nc(Br)cnc1N [Example 144, 3-amino-6-bromo-N-[5-(1-methyl-1H-pyrrol-2-yl)-2-oxo-2,3-dihydropyrimidin-4-yl]-pyrazine-2-carboxamide] | 1000 to 10000 nM | – | – | – | – | – | – | – |
| Nc1nccnc1C(=O)Nc1[nH]c(=O)ncc1N1CCC(F)CC1 [Example 149, 3-amino-N-[5-(4-fluoro-piperidin-1-yl)-2-oxo-2,3-dihydropyrimidin-4-yl]pyrazine-2-carboxamide] | 1000 to 10000 nM | – | – | – | – | – | – | – |
| Nc1nccnc1C(=O)Nc1[nH]c(=O)ncc1N1CCC(C(F)(F)F)CC1 [Example 152, 3-amino-N-{2-oxo-5-[4-(trifluoromethyl)piperidin-1-yl]-2,3-dihydropyrimidin-4-yl}-pyrazine-2-carboxamide] | < 1000 nM | < 1 µM | < 1 µM | < 1 µM | – | – | – | – |
| Nc1ncc(Br)nc1C(=O)Nc1[nH]c(=O)ncc1N1CCC(C(F)(F)F)CC1 [Example 153, 3-amino-6-bromo-N-{2-oxo-5-[4-(trifluoromethyl)piperidin-1-yl]-2,3-dihydropyrimidin-4-yl}-pyrazine-2-carboxamide] | > 25000 nM | < 1 µM | < 1 µM | < 1 µM | – | – | – | – |
| Nc1nccnc1C(=O)Nc1[nH]c(=O)ncc1N1CCCC(F)C1 (stereo not drawn) [Example 154, 3-amino-N-[5-(3-fluoro-piperidin-1-yl)-2-oxo-2,3-dihydropyrimidin-4-yl]pyrazine-2-carboxamide] | < 1000 nM | < 1 µM | < 1 µM | < 1 µM | – | – | – | – |
| Nc1nccnc1C(=O)Nc1cnccc1N1CCC(N)C1 (stereo not drawn) [Example 190, 3-amino-N-[4-(3-amino-pyrrolidin-1-yl)pyridin-3-yl]-pyrazine-2-carboxamide] | > 25000 nM | – | – | – | – | – | – | – |
| Nc1ncc(-c2ccncc2)nc1C(=O)Nc1cnccc1N1CCCC(N)C1 (stereo not drawn) [Example 354, 3-amino-6-pyridin-4-yl-pyrazine-2-carboxylic acid (3-amino-3,4,5,6-tetrahydro-2H-[1,4′]bipyridinyl-3′-yl)-amide] | 1000 to 10000 nM | – | – | – | – | – | – | – |
| Cc1cc(-c2ccncc2NC(=O)c2nc(-c3ncccc3F)ccc2N)cc(N)n1 [Example 746, 5-Amino-3′-fluoro-[2,2′]bi-pyridinyl-6-carboxylic acid (2′-amino-6′-methyl-[4,4′]bi-pyridinyl-3-yl)-amide] | – | – | – | – | < 1 µM | < 1 µM | < 1 µM | – |
| Nc1ccc(-c2cncc(OCc3ccccc3)n2)nc1C(=O)Nc1cnccc1N1CCC[C@H](N)C1 [Example 750, 3-Amino-6-(6-benzyloxy-pyrazin-2-yl)-pyridine-2-carboxylic acid (3-amino-3,4,5,6-tetrahydro-2H-[1,4′]bi-pyridinyl-3′-yl)-amide] | – | – | – | – | < 1 µM | < 1 µM | < 1 µM | – |
| Nc1ccc(-c2c(F)cccc2F)nc1C(=O)Nc1cnccc1N1CC[C@@H](O)[C@@H](N)C1 [Example 752, 3-Amino-6-(2,6-difluoro-phenyl)-pyridine-2-carboxylic acid (3-amino-4-hydroxy-3,4,5,6-tetra-hydro-2H-[1,4′]bipyridinyl-3′-yl)-amide] | – | – | – | – | < 1 µM | < 1 µM | – | < 1 µM |

Results, then the compound that gave them:

| IC50 [1] | IC50 ([2]; read-out: IC50 (μM) PIM3) | IC50 ([3]; read-out: IC50 (μM) PIM2) | IC50 [4, 5] | IC50 ([2]; read-out: PIM3 IC50) | IC50 ([3]; read-out: PIM2 IC50) | IC50 [4, 6] | IC50 [4] | Compound |
| --- | --- | --- | --- | --- | --- | --- | --- | --- |
| – | – | – | – | < 1 µM | < 1 µM | < 1 µM | – | COC(=O)c1nc(-c2nc(C(=O)Nc3cnccc3N3CCC[C@H](N)C3)c(N)cc2F)c(F)cc1N [Example 742, 5,5′-Diamino-6′-(3-amino-3,4,5,6-tetrahydro-2H-[1,4′]bi-pyridinyl-3′-ylcarbamoyl)-3,3′-difluoro-[2,2′]bipyridinyl-6-carboxylic acid methyl ester] |
| – | – | – | – | < 1 µM | < 1 µM | < 1 µM | – | Nc1cc(F)c(-c2ncccc2Cl)nc1C(=O)Nc1cnccc1N1CCC[C@H](N)C1 [Example 743, 5-Amino-3′-chloro-3-fluoro-[2,2′]bipyridinyl-6-carboxylic acid (3-amino-3,4,5,6-tetra-hydro-2H-[1,4′]bipyridinyl-3′-yl)-amide] |
| – | – | – | – | < 1 µM | < 1 µM | < 1 µM | – | Cc1ccc(F)c(-c2nc(C(=O)Nc3cnccc3N3CCC[C@H](N)C3)c(N)cc2F)n1 [Example 745, 5-Amino-3,3′-difluoro-6′-methyl-[2,2′]bipyridinyl-6-carboxylic acid (3-amino-3,4,5,6-tetrahydro-2H-[1,4′]bi-pyridinyl-3′-yl)-amide] |
| – | – | – | – | < 1 µM | < 1 µM | < 1 µM | – | CCCOc1cncc(-c2ccc(N)c(C(=O)Nc3cnccc3N3CCC[C@H](N)C3)n2)n1 [Example 747, 3-Amino-6-(6-propoxy-pyrazin-2-yl)-pyridine-2-carboxylic acid (3-amino-3,4,5,6-tetrahydro-2H-[1,4′]bipyridinyl-3′-yl)-amide] |
| – | – | – | – | < 1 µM | < 1 µM | < 1 µM | – | CC(C)Oc1cncc(-c2ccc(N)c(C(=O)Nc3cnccc3N3CCC[C@H](N)C3)n2)n1 [Example 748, 3-Amino-6-(6-isopropoxy-pyrazin-2-yl)-pyridine-2-carboxylic acid (3-amino-3,4,5,6-tetrahydro-2H-[1,4′]bi-pyridinyl-3′-yl)-amide] |
| – | – | – | – | < 1 µM | < 1 µM | < 1 µM | – | CCOc1cncc(-c2ccc(N)c(C(=O)Nc3cnccc3N3CCC[C@H](N)C3)n2)n1 [Example 749, 3-Amino-6-(6-ethoxy-pyrazin-2-yl)-pyridine-2-carboxylic acid (3-amino-3,4,5,6-tetrahydro-2H-[1,4′]bipyridinyl-3′-yl)-amide] |
| – | – | – | – | < 1 µM | < 1 µM | < 1 µM | – | Nc1cc(F)c(-c2c(F)ccc(O)c2F)nc1C(=O)Nc1cnccc1N1CCC[C@H](N)C1 [Example 751, 3-Amino-N-(4-((S)-3-aminopiperidin-1-yl)pyridin-3-yl)-6-(2,6-difluoro-3-hydroxyphenyl)-5-fluoropicolinamide] |
| – | – | – | – | < 1 µM | < 1 µM | < 1 µM | – | CC(C)CCc1ccc(F)c(-c2ccc(N)c(C(=O)Nc3cnccc3N3CCC[C@H](N)C3)n2)c1 [Example 755, (S)-3-amino-N-(4-(3-aminopiperidin-1-yl)pyridin-3-yl)-6-(2-fluoro-5-isopentylphenyl)picolinamide] |
